Assay results reported in the NIST ThermoML archive (doi:10.1021/je020189p).
Several values for one entry are separate records, joined by “and”; a condition that tells them apart may be missing. Equal entries are not always repeated.

[Br][Gd]([Br])[Br] [gadolinium bromide (GdBr3)]
Conditions	vapor or sublimation pressure
895 K, Crystal	3.31e-05 kPa
910 K, Crystal	4.17e-05 kPa
914 K, Crystal	6.31e-05 kPa
917 K, Crystal	7.76e-05 kPa
919 K, Crystal	8.91e-05 kPa
920 K, Crystal	7.76e-05 kPa
926 K, Crystal	0.000112 kPa
928 K, Crystal	7.76e-05 kPa
929 K, Crystal	0.000105 kPa
932 K, Crystal	0.000138 kPa
934 K, Crystal	0.000135 kPa
937 K, Crystal	0.000166 kPa
941 K, Crystal	0.00017 kPa
945 K, Crystal	0.000155 kPa and 0.000204 kPa
947 K, Crystal	0.000234 kPa
951 K, Crystal	0.000251 kPa and 0.000141 kPa
953 K, Crystal	0.000324 kPa
956 K, Crystal	0.000282 kPa and 0.000302 kPa
957 K, Crystal	0.000331 kPa and 0.000224 kPa
959 K, Crystal	0.000324 kPa
962 K, Crystal	0.000447 kPa
964 K, Crystal	0.000398 kPa
965 K, Crystal	0.000389 kPa
967 K, Crystal	0.000468 kPa
968 K, Crystal	0.000324 kPa and 0.000282 kPa
969 K, Crystal	0.000468 kPa and 0.000575 kPa
971 K, Crystal	0.00049 kPa
973 K, Crystal	0.00055 kPa
974 K, Crystal	0.00055 kPa
977 K, Crystal	0.000759 kPa
979 K, Crystal	0.000468 kPa and 0.000676 kPa and 0.000427 kPa
980 K, Crystal	0.000759 kPa
981 K, Crystal	0.000708 kPa
983 K, Crystal	0.000794 kPa
984 K, Crystal	0.000562 kPa
986 K, Crystal	0.000891 kPa
987 K, Crystal	0.001 kPa
988 K, Crystal	0.000933 kPa
989 K, Crystal	0.000708 kPa
990 K, Crystal	0.00107 kPa and 0.000617 kPa and 0.00115 kPa
993 K, Crystal	0.0011 kPa
994 K, Crystal	0.0011 kPa
996 K, Crystal	0.00123 kPa
997 K, Crystal	0.00145 kPa
999 K, Crystal	0.00102 kPa and 0.00155 kPa
1000 K, Crystal	0.00138 kPa
1001 K, Crystal	0.00155 kPa
1002 K, Crystal	0.000912 kPa
1003 K, Crystal	0.00148 kPa
1004 K, Crystal	0.00158 kPa
1006 K, Crystal	0.00162 kPa
1008 K, Crystal	0.00141 kPa and 0.002 kPa
1011 K, Crystal	0.00219 kPa and 0.002 kPa
1012 K, Crystal	0.00195 kPa
1014 K, Crystal	0.00245 kPa and 0.00219 kPa and 0.00135 kPa
1015 K, Crystal	0.0017 kPa and 0.00219 kPa
1018 K, Crystal	0.00191 kPa and 0.00275 kPa
1019 K, Crystal	0.00251 kPa
1020 K, Crystal	0.00288 kPa
1023 K, Crystal	0.00219 kPa and 0.00275 kPa
1025 K, Crystal	0.00302 kPa
1026 K, Crystal	0.002 kPa and 0.00347 kPa
1029 K, Crystal	0.00372 kPa and 0.00275 kPa
1030 K, Crystal	0.00363 kPa
1032 K, Crystal	0.00295 kPa and 0.00372 kPa
1034 K, Crystal	0.00398 kPa
1035 K, Crystal	0.00339 kPa
1036 K, Crystal	0.00468 kPa
1041 K, Crystal	0.00513 kPa and 0.00316 kPa
1043 K, Crystal	0.00513 kPa
1045 K, Crystal	0.00575 kPa
1049 K, Crystal	0.00661 kPa and 0.00417 kPa
1051 K, Crystal	0.00661 kPa
1057 K, Crystal	0.00776 kPa and 0.00832 kPa and 0.00525 kPa
1060 K, Liquid	0.00646 kPa
1067 K, Liquid	0.00933 kPa
1073 K, Liquid	0.00851 kPa
1074 K, Liquid	0.00741 kPa
1078 K, Liquid	0.012 kPa
1085 K, Liquid	0.0117 kPa
1087 K, Liquid	0.0145 kPa
1091 K, Liquid	0.0115 kPa
1096 K, Liquid	0.0158 kPa
1098 K, Liquid	0.0191 kPa
1099 K, Liquid	0.0138 kPa
1105 K, Liquid	0.0204 kPa
1108 K, Liquid	0.0178 kPa and 0.0234 kPa
1114 K, Liquid	0.024 kPa
1119 K, Liquid	0.0229 kPa and 0.0302 kPa
1123 K, Liquid	0.0282 kPa
1128 K, Liquid	0.0372 kPa
1130 K, Liquid	0.0302 kPa
1138 K, Liquid	0.0468 kPa
1140 K, Liquid	0.0427 kPa and 0.038 kPa
1148 K, Liquid	0.0513 kPa
1150 K, Liquid	0.049 kPa and 0.0617 kPa
1155 K, Liquid	0.0617 kPa
1159 K, Liquid	0.0589 kPa
1161 K, Liquid	0.0794 kPa
1168 K, Liquid	0.0708 kPa
1169 K, Liquid	0.0912 kPa
1179 K, Liquid	0.0912 kPa

[I][Gd]([I])[I] [gadolinium triiodide]
Crystal
Conditions	vapor or sublimation pressure
890 K	4.47e-05 kPa
891 K	5.62e-05 kPa
901 K	6.76e-05 kPa and 8.32e-05 kPa and 5.62e-05 kPa
905 K	8.51e-05 kPa
911 K	0.000112 kPa
912 K	8.91e-05 kPa
913 K	0.000112 kPa
914 K	0.000138 kPa and 8.91e-05 kPa
916 K	0.000112 kPa
918 K	0.000135 kPa
919 K	0.000155 kPa
920 K	0.000112 kPa
922 K	0.000178 kPa
924 K	0.000123 kPa
925 K	0.000178 kPa
927 K	0.000174 kPa and 0.000151 kPa
928 K	0.000145 kPa and 0.000195 kPa and 0.000209 kPa
929 K	0.000234 kPa
933 K	0.000191 kPa
934 K	0.000269 kPa
936 K	0.0002 kPa
937 K	0.000282 kPa and 0.000251 kPa
938 K	0.000324 kPa
939 K	0.000295 kPa
942 K	0.000347 kPa and 0.000269 kPa
943 K	0.000245 kPa
944 K	0.000355 kPa
946 K	0.000398 kPa
947 K	0.000389 kPa
948 K	0.000372 kPa
951 K	0.000331 kPa
952 K	0.00049 kPa
954 K	0.000417 kPa
955 K	0.000525 kPa and 0.000603 kPa
957 K	0.000575 kPa and 0.000457 kPa
959 K	0.000447 kPa
962 K	0.000708 kPa
964 K	0.000794 kPa
966 K	0.000575 kPa and 0.000794 kPa and 0.000631 kPa
967 K	0.000724 kPa
970 K	0.000912 kPa
973 K	0.00107 kPa
974 K	0.00102 kPa
975 K	0.00107 kPa and 0.000891 kPa
978 K	0.000832 kPa and 0.00107 kPa
979 K	0.00126 kPa
983 K	0.00135 kPa and 0.00115 kPa
984 K	0.00145 kPa
985 K	0.00158 kPa
987 K	0.00162 kPa
988 K	0.00115 kPa
990 K	0.00155 kPa
992 K	0.00174 kPa and 0.00141 kPa
993 K	0.00191 kPa and 0.00204 kPa
995 K	0.00214 kPa
997 K	0.00138 kPa
1002 K	0.00251 kPa and 0.00219 kPa
1003 K	0.00269 kPa
1006 K	0.00191 kPa
1011 K	0.00331 kPa and 0.00282 kPa
1012 K	0.00355 kPa
1019 K	0.00339 kPa
1021 K	0.00389 kPa
1023 K	0.00676 kPa
1026 K	0.00407 kPa
1033 K	0.00871 kPa and 0.00537 kPa
1040 K	0.00603 kPa
1042 K	0.00692 kPa
1045 K	0.0126 kPa
1052 K	0.00871 kPa
1054 K	0.00977 kPa
1055 K	0.017 kPa
1064 K	0.0219 kPa
1066 K	0.0135 kPa and 0.0145 kPa
1074 K	0.0302 kPa
1076 K	0.0209 kPa
1082 K	0.0214 kPa
1083 K	0.0398 kPa
1086 K	0.0282 kPa
1094 K	0.0537 kPa
1097 K	0.0372 kPa
1102 K	0.0676 kPa
